Where a name gives a salt, the structure may show the parent alone. Read-outs that look alike come from different tables or passages of the source.
How the values were obtained:
[1] = format: physicochemical; conditions: for relative humidity at which conversion to Form B occurred: slurrying Form A only
Method: Slurry experiments were performed with various water activities starting with Form A only and also by conducting interconversion slurries or pre-saturating solutions with APC and then adding equal amounts of Form A and Form B. When slurrying Form A only, conversion to Form B at room temperature occurred at 67% RH, and 40% RH at 2-8° C. With the interconversion slurries, Form B was isolated from all experiments with relative humidities ranging from 50% to 70%.

[2] = Humidity stressing of Form A; format: physicochemical; conditions: approximately 75% humidity (RH)
[3] = Aqueous solubility of Form B in different pH buffers; format: physicochemical; conditions: thermodynamic from solid
[4] = Drying of Form B in scaled-up method (low vacuum); format: physicochemical; conditions: oven temperature 20-25° C., low vacuum (700-750 mbar)
Method: An additional scaled-up method for producing Form B was developed that reduced reaction time and volume and increased yield. Isolation of Form B from Form A was carried out in 5 volumes of solvent (acetonitrile:water (95%:5% v:v)) at about 20° C. for about 1-2 hours. The drying process was carried out at an oven temperature of 20-25° C. and low vacuum (700-750 mbar). Under these drying conditions Form B was stable and no detectable Form A was formed. This method was used on a 4.5 kg batch of APC and produced Form B with a yield of 93.7%.

[5] = Drying studies on Form B (temperature, vacuum, milling, desiccant, low RH stressing); format: physicochemical
Method: Drying studies were performed on Form B. The drying experiments were performed under various temperatures with and without vacuum. Additionally, milling, storage under desiccant, and low RH stressing were conducted.

Row | Compound | relative humidity at which conversion to Form B occurred ([1]; 2-8° C.) [% RH] | relative humidity at which conversion to Form B occurred ([1]; room temperature) [% RH] | solid form after humidity stressing [2] | relative stability of solid forms ([1]; interconversion slurry of Form A and Form B, approximately 50% RH or greater at room temperature) | solubility ([3]; aqueous buffer, Buffer solution pH 4.5, pH (buffer) measured starting conditions 4.5, pH (buffered sample) 5.7, read-out: Solubility (mg/ml mean of triplicates)) [mg/mL] | solubility ([3]; aqueous buffer, Buffer solution pH 5.5, pH (buffer) measured starting conditions 5.5, pH (buffered sample) 6.0, read-out: Solubility (mg/ml mean of triplicates)) [mg/mL] | solubility ([3]; aqueous buffer, Buffer solution pH 7.4, pH (buffer) measured starting conditions 7.4, pH (buffered sample) 6.4, read-out: Solubility (mg/ml mean of triplicates)) [mg/mL] | solubility ([3]; aqueous buffers of different pH, aqueous buffer, different pH buffers, read-out: aqueous solubility) [mg/mL] | solubility ([3]; buffer solution, aqueous buffer, pH 1-6.5, read-out: solubility in buffer solution) [mg/mL] | solubility ([3]; simulated gastric fluid, Buffer solution pH 1.2, pH (buffer) measured starting conditions 1.2, pH (buffered sample) 4.5, read-out: Solubility (mg/ml mean of triplicates)) [mg/mL] | stability of solid form on drying [4] | stability of solid form (overall result of the drying studies) ([5]; low RH or elevated temperature) | solid form after drying/stress ([5]; vacuum drying at 50° C. 1 day, heating at 80° C. 1 day, milling) | solid form after drying/stress ([5]; vacuum drying at ambient temperature 1 day, heating at 40° C. 1 day, storage under desiccant 1 day, stressing at 33% RH 2 weeks)
1 | NC(=O)OC[C@H](N)Cc1ccccc1 [Form A, (R)-2-amino-3-phenylpropyl carbamate hydrochloride] | 40 | 67 | Partial conversion to Form B | – | – | – | – | – | – | – | – | – | – | –
2 | NC(=O)OC[C@H](N)Cc1ccccc1 [Form B, (R)-2-amino-3-phenylpropyl carbamate hydrochloride] | – | – | – | more stable form | 733 | 742 | 746 | > 700 | 700 to 750 | 732 | stable | not stable | Full dehydration to Form A | Partial conversion to Form A

— US12384743B2, “Compositions comprising (R)-2-amino-3-phenylpropyl carbamate and uses thereof” (priority 2016, dated 2025)
